Source: PubChem BioAssay AID1963847 (Molecular Pharmacology Branch, DTP, NCI, 2024)

Test system: 415267-285-R-J2-PDC complex spheroid viability
Assay: Anticancer human tumor 415267-285-R-J2-PDC patient-derived breast carcinoma cell line growth inhibition [POLQ]
Conditions: for IC50: curve of first compound; for viability, T/C: stronger effect = lower value
Outline: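 Growth inhibition in 3D: complex spheroids (tumor PDC, HUVEC, MSC) treated with POLQ inhibitor combinations; where Cmax unknown, highest tested concentration 10 microM, except SN-38 at 1 microM.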

[1] = second compound 0.0316 µM, first compound 0.0316 µM
[2] = second compound 0.0316 µM, first compound 0.1 µM
[3] = second compound 0.0316 µM, first compound 0.316 µM
[4] = second compound 0.0316 µM, first compound 1 µM
[5] = second compound 0.0316 µM, first compound 3.16 µM
[6] = second compound 0.0316 µM, first compound 10 µM
[7] = second compound 0.1 µM, first compound 0.0316 µM
[8] = second compound 0.1 µM, first compound 0.1 µM
[9] = second compound 0.1 µM, first compound 0.316 µM
[10] = second compound 0.1 µM, first compound 1 µM
[11] = second compound 0.1 µM, first compound 3.16 µM
[12] = second compound 0.1 µM, first compound 10 µM
[13] = second compound 0.316 µM, first compound 0.0316 µM
[14] = second compound 0.316 µM, first compound 0.1 µM
[15] = second compound 0.316 µM, first compound 0.316 µM
[16] = second compound 0.316 µM, first compound 1 µM
[17] = second compound 0.316 µM, first compound 3.16 µM
[18] = second compound 0.316 µM, first compound 10 µM
[19] = second compound 1 µM, first compound 0.0316 µM
[20] = second compound 1 µM, first compound 0.1 µM
[21] = second compound 1 µM, first compound 0.316 µM
[22] = second compound 1 µM, first compound 1 µM
[23] = second compound 1 µM, first compound 3.16 µM
[24] = second compound 1 µM, first compound 10 µM
[25] = second compound 3.16 µM, first compound 0.0316 µM
[26] = second compound 3.16 µM, first compound 0.1 µM
[27] = second compound 3.16 µM, first compound 0.316 µM
[28] = second compound 3.16 µM, first compound 1 µM
[29] = second compound 3.16 µM, first compound 3.16 µM
[30] = second compound 3.16 µM, first compound 10 µM
[31] = second compound 10 µM, first compound 0.0316 µM
[32] = second compound 10 µM, first compound 0.1 µM
[33] = second compound 10 µM, first compound 0.316 µM
[34] = second compound 10 µM, first compound 1 µM
[35] = second compound 10 µM, first compound 3.16 µM
[36] = second compound 10 µM, first compound 10 µM
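Further: spheroids exposed to compounds for one week before readout.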
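Wherever viability, T/C is given: luminescence used as stand-in measure of viable cells; 100% = DMSO vehicle control viability.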

`CCc1cc2c(N3CCc4c(cc(Cn5ccnc5)cc4-c4cn(C)nc4C(F)(F)F)C3=O)cc(C)nc2c(OC)n1` + COC1C(OC(N)=O)C(O)C(Oc2ccc3c(O)c(NC(=O)c4ccc(O)c(CC=C(C)C)c4)c(=O)oc3c2C)OC1(C)C was tested, and the IC50 (second compound 0.0316 µM) was > 10 µM, the IC50 (second compound 0.1 µM) was > 10 µM and the IC50 (second compound 0.316 µM) was > 10 µM. For the same molecule, the IC50 (second compound 1 µM) was > 10 µM, the IC50 (second compound 3.16 µM) was > 10 µM and the IC50 (second compound 10 µM) was > 10 µM. It also gave a viability, T/C [1] of 75.5%, a viability, T/C [2] of 81.8% and a viability, T/C [3] of 84.8%. It also gave a viability, T/C [4] of 76.1%, a viability, T/C [5] of 76% and a viability, T/C [6] of 64.4%. For the same molecule, the viability, T/C [7] was 84%, the viability, T/C [8] was 81.9% and the viability, T/C [9] was 80.6%. For the same molecule, the viability, T/C [10] was 75.6%, the viability, T/C [11] was 72.9% and the viability, T/C [12] was 66.8%. The viability, T/C [13] was 93.5%, the viability, T/C [14] was 79.9% and the viability, T/C [15] was 74.2%. It also gave a viability, T/C [16] of 69.5%, a viability, T/C [17] of 83.7% and a viability, T/C [18] of 65.9%. The viability, T/C [19] was 94.1%, the viability, T/C [20] was 79.6% and the viability, T/C [21] was 68.1%. For the same molecule, the viability, T/C [22] was 73.9%, the viability, T/C [23] was 73.6% and the viability, T/C [24] was 55.5%. For the same molecule, the viability, T/C [25] was 92.3%, the viability, T/C [26] was 98.6% and the viability, T/C [27] was 73.8%. For the same molecule, the viability, T/C [28] was 85.3%, the viability, T/C [29] was 80.9% and the viability, T/C [30] was 73.5%. For the same molecule, the viability, T/C [31] was 90.2%, the viability, T/C [32] was 85.9% and the viability, T/C [33] was 88.3%. For the same molecule, the viability, T/C [34] was 82%, the viability, T/C [35] was 68.5% and the viability, T/C [36] was 59.7%.

`CCc1cc2c(N3CCc4c(cc(Cn5ccnc5)cc4-c4cn(C)nc4C(F)(F)F)C3=O)ccnc2c(OC)n1` + COC1C(OC(N)=O)C(O)C(Oc2ccc3c(O)c(NC(=O)c4ccc(O)c(CC=C(C)C)c4)c(=O)oc3c2C)OC1(C)C was tested, and the IC50 (second compound 0.0316 µM) was > 10 µM, the IC50 (second compound 0.1 µM) was > 10 µM and the IC50 (second compound 0.316 µM) was > 10 µM. For the same molecule, the IC50 (second compound 1 µM) was > 10 µM, the IC50 (second compound 3.16 µM) was > 10 µM and the IC50 (second compound 10 µM) was > 10 µM. For the same molecule, the viability, T/C [1] was 92.8%, the viability, T/C [2] was 74.9% and the viability, T/C [3] was 88%. It also gave a viability, T/C [4] of 91.1%, a viability, T/C [5] of 83% and a viability, T/C [6] of 66.3%. For the same molecule, the viability, T/C [7] was 89.4%, the viability, T/C [8] was 87% and the viability, T/C [9] was 83.2%. It also gave a viability, T/C [10] of 83.3%, a viability, T/C [11] of 77.6% and a viability, T/C [12] of 67.6%. The viability, T/C [13] was 89.8%, the viability, T/C [14] was 90.9% and the viability, T/C [15] was 71.5%. The viability, T/C [16] was 81%, the viability, T/C [17] was 75.3% and the viability, T/C [18] was 71.8%. The viability, T/C [19] was 88.6%, the viability, T/C [20] was 89.6% and the viability, T/C [21] was 79.5%. It also gave a viability, T/C [22] of 74.9%, a viability, T/C [23] of 79.5% and a viability, T/C [24] of 63.2%. For the same molecule, the viability, T/C [25] was 97.4%, the viability, T/C [26] was 83.8% and the viability, T/C [27] was 78.8%. For the same molecule, the viability, T/C [28] was 84.5%, the viability, T/C [29] was 73.5% and the viability, T/C [30] was 70.5%. It also gave a viability, T/C [31] of 99.2%, a viability, T/C [32] of 89.8% and a viability, T/C [33] of 84.9%. The viability, T/C [34] was 77.5%, the viability, T/C [35] was 73.6% and the viability, T/C [36] was 72.2%.

`COc1cc2cc(C(=O)CCC(=O)O)sc2cc1OC` + COC1C(OC(N)=O)C(O)C(Oc2ccc3c(O)c(NC(=O)c4ccc(O)c(CC=C(C)C)c4)c(=O)oc3c2C)OC1(C)C was tested, and the IC50 (second compound 0.0316 µM) was > 10 µM, the IC50 (second compound 0.1 µM) was > 10 µM and the IC50 (second compound 0.316 µM) was > 10 µM. For the same molecule, the IC50 (second compound 1 µM) was > 10 µM, the IC50 (second compound 3.16 µM) was > 10 µM and the IC50 (second compound 10 µM) was > 10 µM. For the same molecule, the viability, T/C [1] was 99.7%, the viability, T/C [2] was 104% and the viability, T/C [3] was 101%. It also gave a viability, T/C [4] of 104%, a viability, T/C [5] of 103% and a viability, T/C [6] of 102%. For the same molecule, the viability, T/C [7] was 102%, the viability, T/C [8] was 106% and the viability, T/C [9] was 97.7%. The viability, T/C [10] was 107%, the viability, T/C [11] was 102% and the viability, T/C [12] was 109%. It also gave a viability, T/C [13] of 107%, a viability, T/C [14] of 97.3% and a viability, T/C [15] of 101%. It also gave a viability, T/C [16] of 98.6%, a viability, T/C [17] of 117% and a viability, T/C [18] of 105%. For the same molecule, the viability, T/C [19] was 98.7%, the viability, T/C [20] was 111% and the viability, T/C [21] was 109%. The viability, T/C [22] was 107%, the viability, T/C [23] was 104% and the viability, T/C [24] was 106%. It also gave a viability, T/C [25] of 96.1%, a viability, T/C [26] of 105% and a viability, T/C [27] of 101%. The viability, T/C [28] was 113%, the viability, T/C [29] was 96% and the viability, T/C [30] was 98.1%. It also gave a viability, T/C [31] of 101%, a viability, T/C [32] of 109% and a viability, T/C [33] of 102%. The viability, T/C [34] was 102%, the viability, T/C [35] was 96.7% and the viability, T/C [36] was 104%.

For `O=C(Nc1ccc(O)c(NS(=O)(=O)c2ccc(F)cc2)c1)c1ccc(-c2ccccc2)cc1` + COC1C(OC(N)=O)C(O)C(Oc2ccc3c(O)c(NC(=O)c4ccc(O)c(CC=C(C)C)c4)c(=O)oc3c2C)OC1(C)C, the IC50 (second compound 0.0316 µM) was 8.51 µM, the IC50 (second compound 0.1 µM) was 8.85 µM and the IC50 (second compound 0.316 µM) was 8.8 µM. The IC50 (second compound 1 µM) was 8.54 µM, the IC50 (second compound 3.16 µM) was 8.17 µM and the IC50 (second compound 10 µM) was > 10 µM. For the same molecule, the viability, T/C [1] was 97.7%, the viability, T/C [2] was 93% and the viability, T/C [3] was 94.8%. The viability, T/C [4] was 95.8%, the viability, T/C [5] was 93.6% and the viability, T/C [6] was 42.9%. It also gave a viability, T/C [7] of 95.8%, a viability, T/C [8] of 101% and a viability, T/C [9] of 87.6%. It also gave a viability, T/C [10] of 114%, a viability, T/C [11] of 94.6% and a viability, T/C [12] of 44.3%. The viability, T/C [13] was 110%, the viability, T/C [14] was 99.2% and the viability, T/C [15] was 98.9%. The viability, T/C [16] was 117%, the viability, T/C [17] was 94.3% and the viability, T/C [18] was 44.4%. It also gave a viability, T/C [19] of 90.6%, a viability, T/C [20] of 108% and a viability, T/C [21] of 95.7%. The viability, T/C [22] was 104%, the viability, T/C [23] was 93.3% and the viability, T/C [24] was 42.9%. It also gave a viability, T/C [25] of 103%, a viability, T/C [26] of 105% and a viability, T/C [27] of 119%. For the same molecule, the viability, T/C [28] was 113%, the viability, T/C [29] was 94.4% and the viability, T/C [30] was 40.5%. For the same molecule, the viability, T/C [31] was 118%, the viability, T/C [32] was 110% and the viability, T/C [33] was 103%. The viability, T/C [34] was 98.5%, the viability, T/C [35] was 92.5% and the viability, T/C [36] was 48.5%.
